Counter-ions that a name gives are not always drawn.
Tested on: longitudinal muscle strip from the duodenal smooth muscle layer
Assay: Measurement of intestinal contractile activity (Magnus organ bath, cumulative dosing)
Conditions: Oryctolagus cuniculus; male NZW rabbit duodenal longitudinal muscle strip, Krebs solution 31° C., test compound 0.01 nM to 10 μM cumulative dosing; contraction by carbachol 10 μM taken as 100%
Protocol: Bioactivity Test (Measurement of Intestinal Contractile Activity)
A male NZW rabbit (body weight: 2.5 to 3.0 kg, KITAYAMA LABES CO., LTD., NAGANO) was used.
Carbachol (carbamylcholine chloride, Sigma-Aldrich Japan K.K.) was purchased and used. Each test compound was dissolved in dimethyl sulfoxide (DMSO, Sigma-Aldrich Japan K.K.), and then suspended in physiological saline. Carbachol was dissolved in physiological saline.
(3) Experimental Method and Results
Pentobarbital sodium (Kyoritsu Seiyaku Corporation, Osaka) was administered to the rabbit through the auricular vein, and the rabbit was euthanized by exsanguination under anesthesia. Thereafter, the duodenum was excised from the rabbit and rapidly rinsed with Krebs solution (NaCl 120.0 mM, KCl 4.7 mM, CaCl2 2.4 mM, KH2PO4 1.0 mM, MgSO4 1.2 mM, NaHCO3 24.5 mM, and glucose 5.6 mM, pH 7.4). Then, a longitudinal muscle strip (length: 10 mm, width: 3 mm) was prepared from the duodenal smooth muscle layer obtained by stripping off the mucosal layer from the duodenum. The prepared strip was mounted in an organ bath and contained in 20 mL of Krebs solution gassed with 95% O2 and 5% CO2 at 31° C. so as to suppress excessive locomotion, and a tension of 1 g was applied thereto. The strip was left to stand for 1 hour or more while replacing the Krebs solution every 15 minutes until the strip was equilibrated. Before starting the experiment, stimulation with carbachol at 10 μM was repeatedly applied until a reproducible contraction was obtained. The contractile activity was measured with an FD pickup (TB-611T, Nihon Kohden Corporation, Tokyo) and recorded on a pen recorder (RECTI HORIZ-8K, Sanei, Tokyo). Each test compound was added to the Krebs solution at 0.01 nM to 10 μM, and the strip was contracted by cumulative dosing. The contractile activity at each concentration was determined when the contractile activity at the time of stimulation with carbachol at 10 μM was taken as 100%, and the EC50 value of each test compound was determined. The EC50 values are shown below.

| Structure (SMILES) | EC50 |
| --- | --- |
| C[C@H]1CN(Cc2ccc(N(C)C(=O)[C@H]3CC[C@H](Oc4ccc(F)cc4)CC3)cc2)CCN1 [Example 1, Trans-4-(4-fluorophenoxy)-N-methyl-N-(4-{[(3S)-3-methylpiperazin-1-yl]methyl}phenyl)cyclohexanecarboxamide] | 28 nM |
| Cc1cc(N(C)C(=O)[C@H]2CC[C@H](Oc3ccc(F)cn3)CC2)ccc1CN1CCN[C@@H](C)C1 [Example 4, Trans-4-[(5-fluoropyridin-2-yl)oxy]-N-methyl-N-(3-methyl-4-{[(3S)-3-methylpiperazin-1-yl]methyl}phenyl)cyclohexanecarboxamide hydrochloride] | 2.5 nM |
| Cc1cc(N(C)C(=O)[C@H]2CC[C@H](Oc3cccc(CO)c3)CC2)ccc1CN1CCN[C@@H](C)C1 [Example 5, Trans-4-[3-(hydroxymethyl)phenoxy]-N-methyl-N-(3-methyl-4-{[(3S)-3-methylpiperazin-1-yl]methyl}phenyl)cyclohexanecarboxamide hydrochloride] | 7.3 nM |
| CCOC(=O)Cc1cccc(O[C@H]2CC[C@H](C(=O)N(C)c3ccc(CN4CCN[C@@H](C)C4)c(C)c3)CC2)c1 [Example 16, Ethyl [3-({trans-4-[methyl(3-methyl-4-{[(3S)-3-methylpiperazin-1-yl]methyl}phenyl)carbamoyl]cyclohexyl}oxy)phenyl]acetate hydrochloride] | 2.4 nM |
| Cc1cc(N(C)C(=O)[C@H]2CC[C@H](Oc3ccnc(C#N)c3)CC2)ccc1CN1CCN[C@@H](C)C1 [Example 22, Trans-4-[(2-cyanopyridin-4-yl)oxy]-N-methyl-N-(3-methyl-4-{[(3S)-3-methylpiperazin-1-yl]methyl}phenyl)cyclohexanecarboxamide hydrochloride] | 4.8 nM |
| Cc1cc(N(C)C(=O)[C@H]2CC[C@H](Oc3cccc(CC(=O)NC(C)C)c3)CC2)ccc1CN1CCN[C@@H](C)C1 [Example 30, Trans-4-{3-[2-(isopropylamino)-2-oxoethyl]phenoxy}-N-methyl-N-(3-methyl-4-{[(3S)-3-methylpiperazin-1-yl]methyl}phenyl)cyclohexanecarboxamide hydrochloride] | 3 nM |
| Cc1cc(N(C)C(=O)[C@H]2CC[C@H](Oc3cccc(CC(=O)NC(C)(C)C)c3)CC2)ccc1CN1CCN[C@@H](C)C1 [Example 33, Trans-4-{3-[2-(tert-butylamino)-2-oxoethyl]phenoxy}-N-methyl-N-(3-methyl-4-{[(3S)-3-methylpiperazin-1-yl]methyl}phenyl)cyclohexanecarboxamide] | 1.5 nM |
| Cc1cc(N(C)C(=O)[C@H]2CC[C@H](Oc3cccc(CC(=O)N(C)C(C)C)c3)CC2)ccc1CN1CCN[C@@H](C)C1 [Example 34, Trans-4-(3-{2-[isopropyl(methyl)amino]-2-oxoethyl}phenoxy)-N-methyl-N-(3-methyl-4-{[(3S)-3-methylpiperazin-1-yl]methyl}phenyl)cyclohexanecarboxamide] | 2.1 nM |
| Cc1cc(N(C)C(=O)[C@H]2CC[C@H](Oc3cccc(CS(C)(=O)=O)c3)CC2)ccc1CN1CCN[C@@H](C)C1 [Example 42, hydrochloride] | 4.8 nM |
| COCCOCc1cccc(O[C@H]2CC[C@H](C(=O)N(C)c3ccc(CN4CCN[C@@H](C)C4)c(C)c3)CC2)c1 [Example 53, Trans-4-{3-[(2-methoxyethoxy)methyl]phenoxy}-N-methyl-N-(3-methyl-4-{[(3S)-3-methylpiperazin-1-yl]methyl}phenyl)cyclohexanecarboxamide hydrochloride] | 6.8 nM |
| Cc1cc(N(C)C(=O)[C@H]2CC[C@H](Oc3cccc(COC[C@@H](C)O)c3)CC2)ccc1CN1CCN[C@@H](C)C1 [Example 56, Trans-4-[3-({[(2R)-2-hydroxypropyl]oxy}methyl)phenoxy]-N-methyl-N-(3-methyl-4-{[(3S)-3-methylpiperazin-1-yl]methyl}phenyl)cyclohexanecarboxamide hydrochloride] | 1.2 nM |
| Cc1cc(N(C)C(=O)[C@H]2CC[C@H](Oc3cccc(COCC(C)(C)O)c3)CC2)ccc1CN1CCN[C@@H](C)C1 [Example 57, Trans-4-{3-[(2-hydroxy-2-methylpropoxy)methyl]phenoxy}-N-methyl-N-(3-methyl-4-{[(3S)-3-methylpiperazin-1-yl]methyl}phenyl)cyclohexanecarboxamide hydrochloride] | 11.3 nM |
| Cc1cc(N(C)C(=O)[C@H]2CC[C@H](Nc3cccc(COCC(C)(C)O)c3)CC2)ccc1CN1CCN[C@@H](C)C1 [Example 58, Trans-4-({3-[(2-hydroxy-2-methylpropoxy)methyl]phenyl}amino)-N-methyl-N-(3-methyl-4-{[(3S)-3-methylpiperazin-1-yl]methyl}phenyl)cyclohexanecarboxamide hydrochloride] | 0.9 nM |
